Results taken from US8329645B2, “Polymyxin derivatives and uses thereof” (priority 2008, dated 2012).
Where a SMILES comes first, the peptide text is derived from it. Bridges are numbered along the chain shown (N, C = ends). [ ]: non-standard residue; d: D form. The star is where a group is joined. Decanoyl = CCCCCCCCCC(=O)*; Octanoyl = CCCCCCCC(=O)*; Dab = NCC[C@H](N)C(=O)O; Abu = CC[C@H](N)C(=O)O

Legend:
[1] = tested on: E. coli strains; assay type: cell-based, Escherichia coli
Procedure: (§1) Polymyxin B sulfate (Sigma-Aldrich, St. Louis, Mo., USA) was used as a control. […] Fourteen (14) strains (the F-strains) were purchased from Mobidiag Ltd., Helsinki, Finland. Besides bacteria, the MIC was also determined for the yeast Candida albicans (ATCC 28366 from ATCC). The inocula were prepared by adjusting the bacterial suspensions to a density equivalent to OD546 nm˜0.3 (˜10^8 CFU/ml˜0.5 McFarland) the yeast suspension to a density equivalent to OD546 nm˜0.75 (˜2×10^7 CFU/ml)._The suspensions were diluted to 10^7 CFU/ml. The plates were inoculated by using a Denley Multipoint Inoculator, 1 μl per spot corresponding to approx. 10^4 CFU/spot. Plates were incubated for 16-20 hours at 35° C. […] Both agents had good activity also against other polymyxin-susceptible strains of Enterobacteriaceae. […] S. aureus and C. albicans were resistant to the NAB peptides.

[2] = tested on: E. coli IH3080; test: Bactericidal activity in PBS (% survival); assay type: cell-based, Escherichia coli; settings: solution age fresh
Procedure: For the measurement of the antibacterial activity of aqueous solutions of NAB 739 methanesulfonate sodium, three different solutions were made: 1) A solution (1 mg/ml) made in 0.9% NaCl immediately prior to the experiment, 2) a solution (1 mg/ml) made in 0.9% NaCl 24 h prior to the experiment and kept at 37° C., 3) a solution (1 mg/ml) made in 0.9% NaCl 48 h prior to the experiment and kept at 37° C. A freshly made solution of NAB 739 acetate served as the control compound.
The test bacterium was E. coli IH3080. It was grown in LB broth (LB broth Lennox, Difco, BD, Sparks, Md., U.S.A.) at 37 Celsius in a rotary shaker into early logarithmic growth phase, washed with PBS, and resuspended in PBS to approx. 10e9 cells/ml. PBS was inoculated with approx. 500 CFU (colony forming units) of bacteria per ml and pipetted in 0.2 ml aliquots into wells of a microtiter plate. The plates already contained increasing concentrations of NAB 739 methanesulfonate or the control compound in 0.020 ml of 0.9% NaCl. […] The plate was incubated overnight at 37° C. and the developed colonies were counted.

[3] = tested on: Pseudomonas aeruginosa; assay type: cell-based
Procedure: as §1

[4] = in vivo; settings: male, Sprague-Dawley, rat, iv, 1 mg/kg
Procedure: Each rat (n=5, Sprague-Dawley, male) was anaesthetized using isoflurane, and a polyethylene cannula was inserted into the jugular vein. Each rat was placed into a metabolic cage and allowed to recover from the procedure overnight. […] When collecting samples, the first 100 μl of blood was withdrawn and kept in the syringe. After collecting the actual sample with another syringe, the content of the first syringe was returned to the rat together with 400 μl of heparinized saline. Blood samples were centrifuged to obtain plasma. […] Plasma and urine samples were stored at −80° C.
To a 100-μl sample, 100 μl of acetonitrile was added, the mixture was vortex-mixed for 1 min, and centrifuged at 10,000 g for 10 min. The supernatant was transferred to an SPE C18 cartridge (Sep-Pak, Waters, Mass. USA) for derivatization with 9-fluorenylmethyl chloroformate. […] The chromatography employed the HPLC C18 column (50×4.6 mm), the mobile phase of acetonitrile/tetrahydrofuran/water (60:15:30, v/v), the flow rate of 1.0 ml/min, and the detection at an excitation wavelength of 260 nm and an emission wavelength of 315 nm.

[5] = Two-week intravenous toxicity study in young rats; assay type: in vivo; settings: for lowest dose that negatively influenced the body weight gain: intravenously twice a day for two weeks
Procedure: Toxicity in young rats (weighing approx. 150 g in the beginning of the study) was determined by administering doses (1, 2, 4, 8, 16, and 32 mg/kg per day) of NAB7061 as well as the control compound polymyxin B intravenously twice (2) a day for two weeks. A group of ten (10) rats was studied for each dosage regimen. Clinical observations were made daily, the body weight measured twice weekly, and the food consumption twice weekly. In the end of week 2, all animals were sacrificed.
Histopathology of kidneys was performed for each animals and histopathology of all tissues was performed in three high-dose groups receiving NAB7061.

[6] = tested on: E. coli ATCC25922; test: Growth inhibition around wells on LB agar plates; assay type: cell-based, Escherichia coli
Procedure: (§2) From an overnight-grown culture of IH3080 on LB agar, a suspension of approx. 10^8 cells/ml was prepared in 0.9% NaCl. Aliquots of this suspension were then pipetted on the agar plates and the plates were gently shaken to spread the suspension evenly on the entire surface of the plate. Thereafter, the unabsorbed part of the suspension was removed by using a Pasteur pipette. After the surface had dried, small wells (diameter, 2 mm) were drilled on the plates (five wells per plate) by using a sterile sharp-edged narrow metal tube, single-use pipette tip, and vacuum suction. An alternative method used a swab to spread the inoculum. Samples (4 μl and 10 μl) of the peptide solution in 0.9% NaCl (at concentrations of 1 μg/ml and 0.1 μg/ml) were then pipetted to the wells and the sample fluids were allowed to absorb. Controls included 0.9% NaCl solution without the compound to be tested. The plates were then incubated for 18 h at 37° C. whereafter the diameters of growth inhibition zones around each well were measured; the diameter of the well itself was not reduced. Finally, the diameters were converted to surface areas of growth inhibition (in square mm).
(§3) The susceptibility of eleven Gram-negative bacterial strains (nine different species) to NAB734 and polymyxin B was compared by using the susceptibility determination method described in Example 2. The strains included those belonging to the species of Serratia marcescens and Proteus mirabilis, both species generally known to be resistant to polymyxin. Furthermore, the susceptibility determination was also performed by using the Gram-positive bacterium, Staphylococcus aureus, also generally known to be polymyxin-resistant. Ten of the strains originated from ATCC (American Type Culture Collection, Manassas, Va., U.S.A.), and one from CCUG (Culture Collection of University of Gothenburg, Sweden). The source of E. coli IH3080 has been described in Example 2. Polymyxin B sulfate was from Sigma-Aldrich (St. Louis, Mo., USA).

[7] = tested on: S. marcescens ATCC8100; test: Growth inhibition around wells on LB agar plates; assay type: cell-based, Serratia marcescens
Procedure: as §2, §3

[8] = tested on: E. cloacae ATCC23355; test: E-test MIC with or without NAB7061 (4 μg/ml), Mueller-Hinton agar; assay type: cell-based, Enterobacter cloacae
Outline: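 Gradient-strip (E-strip) method, performed per manufacturer's protocol; MIC read where growth inhibition met the strip.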

[9] = tested on: K. pneumoniae ATCC13883; test: Growth inhibition around wells on LB agar plates; assay type: cell-based, Klebsiella pneumoniae
Procedure: as §2, §3

[10] = tested on: K. pneumoniae CCUG45421; test: Growth inhibition around wells on LB agar plates; assay type: cell-based, Klebsiella pneumoniae
Procedure: as §2, §3

CCCCCCCC(=O)N[C@H](C(=O)N[C@H](CO)C(=O)N[C@H]1CCNC(=O)[C@H]([C@@H](C)O)NC(=O)[C@H](CCN)NC(=O)[C@H](CCN)NC(=O)[C@H](CC(C)C)NC(=O)[C@@H](Cc2ccccc2)NC(=O)[C@H](CCN)NC1=O)[C@@H](C)O [NAB 739, OA-Thr-DSer-cy[Dab-Dab-DPhe-Leu-Dab-Dab-Thr-]] (Octanoyl-T[dS][Dab][Dab][dF]L[Dab][Dab]T; lactam 3-C)
MIC values, range for E. coli strains [1]: 0.5 to 1 µg/mL | % survival at 37 degrees centigrade ([2]; 1 μg/ml): 21% | % survival at 37 degrees centigrade ([2]; 2 μg/ml): 2% | % survival at 37 degrees centigrade ([2]; 4 μg/ml): 0%

CCCCCCCCCC(=O)N[C@H](C(=O)N[C@H](CO)C(=O)N[C@H]1CCNC(=O)[C@H]([C@@H](C)O)NC(=O)[C@H](CCN)NC(=O)[C@H](CCN)NC(=O)[C@H](CC(C)C)NC(=O)[C@@H](Cc2ccccc2)NC(=O)[C@H](CCN)NC1=O)[C@@H](C)O [NAB 740, DA-Thr-DSer-cy[Dab-Dab-DPhe-Leu-Dab-Dab-Thr-]] (Decanoyl-T[dS][Dab][Dab][dF]L[Dab][Dab]T; lactam 3-C)
MIC values, range for E. coli strains [1]: 1 to 2 µg/mL | MIC, range for Pseudomonas aeruginosa [3]: 4 to 8 µg/mL

CCCCCCCC(=O)N[C@H](C(=O)N[C@@H](CC)C(=O)N[C@H]1CCNC(=O)[C@H]([C@@H](C)O)NC(=O)[C@H](CCN)NC(=O)[C@H](CCN)NC(=O)[C@H](CC(C)C)NC(=O)[C@@H](Cc2ccccc2)NC(=O)[C@H](CCN)NC1=O)[C@@H](C)O [NAB 7061, OA-Thr-Abu-cy[Dab-Dab-DPhe-Leu-Dab-Dab-Thr-]] (Octanoyl-T[Abu][Dab][Dab][dF]L[Dab][Dab]T; lactam 3-C)
CL renal ([4]; plasma and urine): 0.28 ± 0.16 mL/min/kg | Vd ([4]; plasma): 0.339 ± 0.096 L/kg | clearance ([4]; plasma): 3.84 ± 0.75 mL/min/kg | half-life ([4]; plasma): 1.1 ± 0.205 h | dose excreted ([4]; urine): 7.16 ± 3.7% | rise of blood urea nitrogen (BUN) versus control or low dose group ([5]; 16 mg/kg per day, end of the study): no such a rise was found | lowest dose that negatively influenced the body weight gain ([5]; rats): 8 mg/kg per day | general pathology and histopathology of organs and kidneys ([5]; rats, two weeks): No NAB7061-related pathological findings were found

Polymyxin B [reference compound]
growth inhibition around a well ([6]; 4 μg): 95 square millimeters | growth inhibition around a well ([6]; 10 μg): 133 square millimeters | growth inhibition around a well ([7]; 4 μg): 0 square millimeters | growth inhibition around a well ([7]; 10 μg): 0 square millimeters | Sensitization factor to antibiotic (MIC without / with 4 μg/ml of NAB 7061) [8]: 4 | growth inhibition around a well ([9]; 4 μg): 79 square millimeters | growth inhibition around a well ([9]; 10 μg): 113 square millimeters | growth inhibition around a well ([10]; 4 μg): 95 square millimeters | growth inhibition around a well ([10]; 10 μg): 133 square millimeters | lowest dose that negatively influenced the body weight gain ([5]; rats): 1 mg/kg per day
